In PubChem BioAssay (NCI):
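Test compounds were applied to cells in 96-well plates for 48 hours at 5 doses. The concentration for 50% growth inhibition is given as GI50. TGI: total growth inhibition.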

Legend:
Experiment in all cases: NCI anticancer screen, dose series, 48 h
OVCAR-3 ovarian = test system: OVCAR-3 ovarian
NCI-H226 lung = test system: NCI-H226 lung
SF-268 CNS = test system: SF-268 CNS
NCI-H23 lung = test system: NCI-H23 lung
MCF7 breast = test system: MCF7 breast
LOX IMVI melanoma = test system: LOX IMVI melanoma
SF-295 CNS = test system: SF-295 CNS
HCC-2998 colon = test system: HCC-2998 colon
CCRF-CEM leukemia = test system: CCRF-CEM leukemia
SF-539 CNS = test system: SF-539 CNS
OVCAR-8 ovarian = test system: OVCAR-8 ovarian
HS 578T breast = test system: HS 578T breast
BT-549 breast = test system: BT-549 breast
HOP-62 NSCLC = test system: HOP-62 NSCLC
SNB-19 CNS = test system: SNB-19 CNS
IGROV1 ovarian = test system: IGROV1 ovarian
MDA-N = test system: MDA-N

| SMILES | TGI (OVCAR-3 ovarian) [µM] | TGI (NCI-H226 lung) [µM] | TGI (SF-268 CNS) [µM] | TGI (NCI-H23 lung) [µM] | TGI (MCF7 breast) [µM] | TGI (LOX IMVI melanoma) [µM] | TGI (SF-295 CNS) [µM] | TGI (HCC-2998 colon) [µM] | TGI (CCRF-CEM leukemia) [µM] | TGI (SF-539 CNS) [µM] | TGI (OVCAR-8 ovarian) [µM] | TGI (HS 578T breast) [µM] | TGI (BT-549 breast) [µM] | TGI (HOP-62 NSCLC) [µM] | TGI (SNB-19 CNS) [µM] | TGI (IGROV1 ovarian) [µM] | TGI (MDA-N) [µM] | GI50 (OVCAR-3 ovarian) [µM] | GI50 (SF-539 CNS) [µM] | GI50 (HOP-62 NSCLC) [µM] |
| --- | --- | --- | --- | --- | --- | --- | --- | --- | --- | --- | --- | --- | --- | --- | --- | --- | --- | --- | --- | --- |
| Cc1cccc2c(N)c3cccc(C(=O)NCC[N+](C)(C)Cc4c([N+](=O)[O-])ncn4C)c3nc12 | > 100 | > 100 | > 100 | > 70.2 | > 47.3 | 35.6 | > 100 | > 95.7 | > 100 | 36.9 | > 95.5 | > 96.1 | > 100 | > 50.9 | > 100 | > 100 | > 100 |  |  |  |
| O=c1[nH]nc(Cc2ccccc2)[nH]1 | > 100 | > 100 | > 100 | > 100 | > 100 | > 100 | > 100 | > 100 | > 100 | > 100 | > 100 | > 100 | > 100 | > 100 | > 100 | > 100 | > 100 |  |  |  |
| O=C1C=CC=C/C1=C1\N=C(c2ccccc2OCC(=O)c2ccc(Br)cc2)SS1 | > 100 | > 100 | > 100 | > 100 | > 100 | > 100 | > 100 | > 100 | > 100 | > 100 | > 100 | 76.2 | 62.9 | 24 | > 100 | 71.3 | > 100 |  |  |  |
| CC12CCC([C@H](C(O)C3CCCCC3)C1=O)C2(C)C (some centres not stated) | > 100 | > 100 | > 100 | > 100 | > 100 | > 100 | > 100 | > 100 | > 100 | > 100 | > 100 | > 100 | > 100 | > 100 | > 100 | > 100 | > 100 |  |  |  |
| O=c1[nH]c(Nc2nc3ccccc3[nH]2)nc2c1CCC2 | > 100 | > 100 | > 100 | > 100 | > 100 | > 100 | > 100 | > 100 | > 100 | > 100 | > 100 | 63.5 | > 100 | > 100 | > 100 | > 100 | > 100 |  |  |  |
| O=C(O)Cc1cccc2c1OC(c1ccccc1)C(Cl)(C(=O)c1ccccc1)C2=O (configuration not stated) | 31.9 | 80.9 | 76.1 | 33.1 | 24.5 | 29.2 | 66.3 | 26.1 | 18.2 | 84.3 | 65.2 | 99.6 | > 100 | 43.6 | > 100 | 28.9 | 29 |  |  |  |
| Cc1cc(C)n(C2OC(CO)C(O)C(O)C2O)c(=S)c1C#N (configuration not stated) | > 100 | > 100 | > 100 | > 100 | > 100 | > 100 | > 100 | > 100 | > 100 | > 100 | > 100 | > 100 | > 100 | > 100 | > 100 | > 100 | > 100 |  |  |  |
| Cc1ccc(/C=C2\CCC/C(=C\c3ccc(O)c(CN4CCCCC4)c3)C2=O)cc1 | 36.5 | 23.3 | 13 | 18.3 | 23.1 | 10.3 | 26 | 15.3 | > 29.1 | 26.6 | 8.37 | 38.5 | 23.9 | > 51.7 | 36.5 | 26.5 | 25.2 |  |  |  |
| Cc1ccc(NC(=O)c2cccc(OP(=O)(O)Nc3ccc(C)cc3)c2)cc1 | > 100 | > 100 | > 100 | > 100 | > 100 | > 100 | > 100 | > 100 | > 100 | > 100 | > 100 | > 100 | > 100 | > 100 | > 100 | > 100 | > 100 |  |  |  |
| O=C1N[C@@H](c2c[nH]c3cc(Br)ccc23)C(=O)N[C@H]1c1c[nH]c2cc(Br)ccc12 | > 100 | > 100 | > 100 | > 100 | > 100 | > 100 | > 100 | > 100 | > 100 | > 100 | > 100 | > 100 | > 100 | > 100 | > 100 | > 100 | > 100 |  |  |  |
| COC(=O)C1C(=O)C=CN([C@H](C)c2ccccc2)[C@@H]1Cc1ccc(OC)c(OCc2ccccc2)c1I (some centres not stated) | 28.2 | 32.7 | 41.1 | 40.3 | 49.3 | 27.8 | 35.5 | 32.5 | > 100 | 36.4 | > 100 | > 100 | 38 | 52.4 | 86.4 | 29.5 | 34.3 |  |  |  |
| Cc1nn(C(=O)Cc2ccccc2)c2c1C(c1ccc(N(C)C)cc1)SC(N)=N2 (configuration not stated) |  | > 100 | > 100 | > 100 | > 100 | > 100 | > 100 | > 100 | > 100 | > 100 | > 100 | > 100 | > 100 | > 100 | > 100 | > 100 | > 100 |  |  |  |
| O=C1C(Cl)C(c2cccc(Cl)c2)N1c1ccc(-n2c(=S)[nH]c3ccccc3c2=O)cc1 (configuration not stated) | > 100 | 73.8 | 39 | 49.7 | 37.8 | 42.5 | 41.8 | 37.8 | 77.5 | 54.6 | > 100 | 62.1 | > 100 | 73.8 | 16.3 | 23.9 | 54.7 |  |  |  |
| Cc1ccc(C)c(COCCOCn2ccc(N)nc2=O)c1 | > 100 | > 100 | > 100 | > 100 | > 100 | > 100 | > 100 | > 100 | > 100 | > 100 | > 100 | > 100 | > 100 | > 100 | > 100 | > 100 | > 100 |  |  |  |
| COC1(OC)CC(CO)(CNc2nc(N)nc(Cl)c2/C=N\O)C1 | > 100 | > 100 | > 100 | > 100 | > 100 | > 100 | > 100 | > 100 | > 100 | > 100 | > 100 | > 100 | > 100 | > 100 | > 100 | > 100 | > 100 |  |  |  |
| CCn1c(SCC(=O)NNC(=S)Nc2ccc(C)cc2)nc2ccccc2c1=O | > 100 | > 100 | > 100 | > 100 | > 100 | > 100 | > 100 | > 100 | > 100 | > 100 | > 100 | > 100 | > 100 | > 100 | > 100 | > 100 | > 100 |  |  |  |
| C=C1CC[C@H](O)C(C)(C)[C@@H]1CC/C(C)=C/CC/C=C(\C)CC/C=C(\C)CCC=C(C)C | > 100 | > 100 | > 100 | > 100 | > 100 | > 100 | > 100 | > 100 | > 100 | > 100 | > 100 | > 100 | > 100 | > 100 | > 100 | > 100 | > 100 |  |  |  |
| CNc1nc2n(CCO)c(-c3ccccc3)c(-c3ccccc3)nc-2c(=O)n1 | > 50 | > 50 | > 50 | > 50 | > 50 | > 50 | > 50 | > 50 | > 50 | > 50 | > 50 | > 50 | > 50 | > 50 | > 50 | > 50 | > 50 |  |  |  |
| COC(=O)CCc1cc(O)c2c(c1)C(C(=O)OC)C(c1ccc(O)c(O)c1)O2 (configuration not stated) | > 67.1 | > 75 | > 100 | > 100 | > 100 | > 100 | 97 | 39.8 | > 48.7 | 32.9 | 65.1 | > 95.9 | > 100 | > 100 | > 100 | > 92.5 | 13.3 |  |  |  |
| CCNc1cc2c(cc1O)CC[C@@H]1[C@@H]2CC[C@]2(C)[C@@H](O)CC[C@@H]12 | 3.63 | 21.6 | 37.9 | 28.7 | 25 | 20.3 | 13.3 | 7.33 | > 100 | 15.5 | 24.1 | 35 | 43.3 | 23.2 | > 46.1 | 33.2 | 2.14 | 0.815 | 0.741 | 0.584 |
| CC(=O)OC1(C)C=CC(=O)C=C1 | > 100 | 73 | > 100 | 75.2 | > 100 | > 100 | > 100 | > 100 | > 100 | > 100 | > 100 | > 100 | > 100 | 75.7 | > 100 | 31.6 | > 100 |  |  |  |
| COC(=O)C(COC(C)=O)NC(=O)/C=C/c1ccc(O)c(OC(C)=O)c1 (configuration not stated) | > 100 | > 100 | > 100 | > 100 | > 100 | > 100 | > 100 | > 100 | > 100 | 53.9 | > 100 | > 100 | > 100 | > 100 | > 100 | > 100 | > 100 |  |  |  |
| COc1cc(OC)c2c(=O)c(OC)c(-c3ccc4c(c3)OCO4)oc2c1 | > 100 | > 100 | 66.6 | 64 | > 100 | 48.8 | 61.7 | > 100 | > 100 | 44.1 | > 100 | 97.6 | > 100 | 74.6 | 62.7 | > 100 | > 100 |  |  |  |
| CN(/N=C/c1ccc(OCc2cccc(COc3ccc(C=O)cc3)n2)cc1)c1cnn(-c2ccc(Cl)cc2Cl)c(=O)c1Cl | > 100 | > 100 | > 100 | > 100 | > 100 | > 100 | > 100 | > 100 | > 100 | 46.9 | > 100 | > 100 | > 100 | > 100 | > 100 | > 100 | > 100 |  |  |  |
| O=[N+]([O-])c1cccc2nc3ccccc3c(NCCC[N+]3([O-])CCOCC3)c12 | 0.474 | 0.529 | 1.91 | 0.316 | 0.725 | 1.62 | 1.38 | 0.0393 | 0.583 | 1.3 | 3.44 | > 100 | 1.4 | 0.689 | 2.8 | 0.608 | 0.277 |  |  |  |
